As a reminder, the IC50 is the concentration at which inhibition is half-maximal. As usually defined, the hepatocyte CLint is the capacity of the preparation to metabolise the compound, expressed as a volume cleared per time. Broadly, the fraction unbound is the share of the substance not bound to proteins or other matrix. A word on the microsomal CLint: it is the rate of metabolic loss divided by the concentration. Low readings indicate slow turnover, high ones rapid turnover.

The source of these data is publication PMC6892276 (European Journal of Pharmaceutical Sciences, 2019).

Data set [1] relates to HCT116 (human colon carcinoma). Also noted: method as in Bavetsias et al., 2012. As to conditions: ref Bavetsias et al., 2012; cited from earlier work.
For a further data set, the system named is CYP2C9. Set-up: method as in Bavetsias et al., 2012. As to conditions: ref Bavetsias et al., 2012; read-out: CYP2C9 inhibition IC50; cited from earlier work.
Data set [2] is described as follows: CLint in cryopreserved rat hepatocyte suspensions. In kind it is in vitro ADME. As to conditions: Sprague Dawley, pH 7.4, female. As for the experimental part:
(§1) Cells were stored in the vapour phase of liquid nitrogen and thawed as per the supplier's instructions (rapid thawing at 37 °C, followed by centrifugation at 50 ×g for 5 min in thawing medium). Hepatocytes were re-suspended in a small volume of incubation medium (WME buffered with HEPES (final concentration 24 mM) adjusted to pH 7.4). Cell density was estimated using a haemocytometer and light microscope and viability determined according to the trypan blue exclusion method; cells were subsequently diluted to the required concentration in incubation medium. […]
(§2) For the purpose of CLint determination, samples were analysed using an Agilent 1290 Infinity ultra high-performance liquid chromatography (UHPLC) system coupled to an Agilent 6520 Quadrupole Time-of-flight mass spectrometer (Agilent Technologies, Stockport, UK). […]
(§3) In vitro data (parent compound LC-MS response) was fitted to a non-linear single exponential model using the software GraphPad Prism (v6.07, GraphPad Software, Inc., La Jolla, USA) to determine the elimination rate constant (k). CLint in hepatocytes and liver microsomes was calculated using Eqs. […]

The subject of data set [3] is MOLM-13 (human FLT3-ITD positive AML). Set-up: method as in Bavetsias et al., 2012. As to conditions: ref Bavetsias et al., 2012; cited from earlier work.
Data set [4] is described as follows: Protein binding in rCYP (Rapid Equilibrium Dialysis). The format is in vitro ADME. As to conditions: human, control rCYP 100 pmol/ml, dialysis 4 h at 37 °C, read-out: fuCYP (fraction unbound in rCYP). As for the experimental part: Samples were removed, matrix matched and quenched with methanol containing internal standard; further processing is as described in Section 2.6.
The fraction unbound (fu) in HLM/rCYP was calculated using Eq. (5).(5) fu=1/1+1/PARreceiver/PARdonor−1 where PAR = Peak Area Ratio of analyte/internal standard.

Another data set relates to CYP2A6. Also noted: method as in Bavetsias et al., 2012. As to conditions: ref Bavetsias et al., 2012; read-out: CYP2A6 inhibition IC50; cited from earlier work.
Data set [5] can be described thus: CLint in human liver microsomes. As to conditions: both sexes, mixed sex, 1 mg/ml, NADPH. In kind it is in vitro ADME. As for the experimental part: (§4) All incubations of subcellular fractions and recombinant enzymes were conducted at 37 °C and 800 rpm using a Hamilton Microlab Star liquid handling workstation (Hamilton Robotics (Bonaduz, Switzerland)).
(§5) Prior to initiation of the reaction by the addition of NADPH (final concentration 1 mM), an aliquot was removed from each incubation and quenched in ice cold methanol containing internal standard (referred to as T0). NADPH was subsequently added to this solution for matrix matching. The remaining reaction (with addition of NADPH) was allowed to proceed for 60 min. At 0.5, 5, 15, 30 and 60 min aliquots were sampled and quenched as above. Incubations were conducted in singlicate; control incubations (substituting PBS for NADPH) were conducted simultaneously.
as §2, §3
(§6) Unbound CLint (CLint,u) was calculated using Eq. (6).(6) CLint,u=CLint/fu
On the technique in general: Microsomes from liver hold many membrane-bound enzymes, among them those of drug oxidation.

Another data set deals with MV4-11 xenograft. Set-up: method as in Bavetsias et al., 2012. As to conditions: MV4-11 xenograft mouse model; ref Bavetsias et al., 2012; cited from earlier work.
Data set [6] in a line: CLint in cryopreserved dog hepatocyte suspensions. The format is in vitro ADME. As to conditions: Beagle. Here is the method:
as §1, §2, §3

The test system of another data set is CYP2C19. Set-up: method as in Bavetsias et al., 2012. As to conditions: ref Bavetsias et al., 2012; read-out: CYP2C19 inhibition IC50; cited from earlier work.
Data set [7] can be described thus: CLint in mouse liver microsomes. In kind it is in vitro ADME. As to conditions: ICR/CD-1, liver microsomes, female, 1 mg/ml, NADPH. Here is the method: as §4, §5, §2, §3
Another data set has as its system rCYP3A4. In words: Reaction phenotyping using recombinant CYP, CLint in rCYP3A4. As to conditions: scaled with ISEF 1.09 and CYP abundance 137 pmol P450/mg; corrected for fuCYP. In kind it is in vitro ADME, human. As for the experimental part: as §4
Recombinant CYP (100 pmol P450/ml) and control bactosome (at an equivalent protein concentration) were prepared in 100 mM KPB. […] The reaction was initiated by the addition of NADPH (final concentration 1 mM) and allowed to proceed for 20 min. At T0 (see Section 2.4.1), 0.5, 5, 10, 15 and 20 min, an aliquot was removed from each incubation and quenched in ice cold methanol containing internal standard.
CLint in rCYP was calculated using Eq. (3) and scaled to μl/min/mg microsomal protein using Eq. (4).(3) CLintμl/min/pmolP450=V·k/pmol protein (4) CLintμl/min/mgmicrosomal protein=CLintμl/min/pmolP450·ISEF·CYPabundance where ISEF is the Intersystem Extrapolation Factor and CYP abundance is amount of each CYP relative to microsomal protein. For rCYP3A4 an ISEF of 1.09 ([Certara, 2017]) and a CYP abundance of 137 pmol P450/mg microsomal protein ([Certara, 2017]) were used.
as §6

Some results are limits rather than exact numbers.

With `Cc1nn(C)cc1-c1nc2c(N3CCN(Cc4ccc(Cl)cc4)CC3)c(Cl)cnc2[nH]1` [CCT241736, 6-Chloro-7-(4-(4-chlorobenzyl)piperazin-1-yl)-2-(1,3-dimethyl-1Hpyrazol-4-yl)-3H-imidazo[4,5-b] pyridine], the anti-proliferative activity result in data set [1] and in data set [3] was “anti-proliferative activity” throughout. Besides, the IC50 with CYP2C9, in the data set with CYP2A6 and with CYP2C19 was > 10 µM each time. For the same compound, the hepatocyte CLint at 1 μM stood at 10 µL/min/1e6 cells in data set [2]; 3.9 µL/min/1e6 cells in [6] (pH 7.4, female); 8.4 µL/min/1e6 cells in data set [6] (pH 7.4, male). Further, the free fraction (fraction unbound) at 4 h, 1 μM in data set [4] was 0.0094. Moreover, the microsomal CLint at 1 μM in [5] worked out at 7.8 ± 1 µL/min/mg; in data set [7] it was 53 ± 4.1 µL/min/mg. For the same compound, in the data set on MV4-11 xenograft, the “inhibition of tumour growth” value is listed as “strong inhibition of tumour growth”. Moreover, the “scaled CLint,u in rCYP3A4” value in the data set with rCYP3A4 is given as 4078 μl/min/mg microsomal protein.
